Assay results taken from BindingDB's records for patent US20250034168 (Xizang Haisco Pharmaceutical, 2025).

Molecular target: Poly [ADP-ribose] polymerase 1 (Homo sapiens, UniProt P09874)
Assay: PARP-1 Enzyme Activity Assay
Method: PARP-1 chemical […] detection kit was purchased from BPS Bioscience. The histone solution in the kit was diluted 5× with 1×PBS, and 25 μL of the diluted histone solution was added to a microwell plate and incubated overnight at 4° C. After the incubation, the plate was washed three times with PBST (0.05% Tween-20). 100 μL of the blocking solution was added to the microwell plate and incubated at 25° C. for 90 minutes. After the incubation, the plate was washed three times with PBST. 2.5 μL of compounds at different concentrations diluted in test buffer and 12.5 μL of substrate mixed solution (1.25 μL 10×PARP test buffer; 1.25 μL 10×PARP test mixed solution; 2.5 μL Activated DNA, 7.5 μL double-distilled water) were added to the microwell plate. […] Streptavidin-HRP was diluted 50× with a blocking solution, and 25 μL of the diluent was added to the microwell plate and incubated at 25° C. for 30 minutes. After the incubation, the plate was washed three times with PBST. ELISA ECL substrate A and substrate B were mixed at a ratio of 1:1 (v/v), 50 μL of the mixture was added to the microwell plate, and the chemiluminescence value was read.

Chain of Poly [ADP-ribose] polymerase 1 (P09874 whole entry): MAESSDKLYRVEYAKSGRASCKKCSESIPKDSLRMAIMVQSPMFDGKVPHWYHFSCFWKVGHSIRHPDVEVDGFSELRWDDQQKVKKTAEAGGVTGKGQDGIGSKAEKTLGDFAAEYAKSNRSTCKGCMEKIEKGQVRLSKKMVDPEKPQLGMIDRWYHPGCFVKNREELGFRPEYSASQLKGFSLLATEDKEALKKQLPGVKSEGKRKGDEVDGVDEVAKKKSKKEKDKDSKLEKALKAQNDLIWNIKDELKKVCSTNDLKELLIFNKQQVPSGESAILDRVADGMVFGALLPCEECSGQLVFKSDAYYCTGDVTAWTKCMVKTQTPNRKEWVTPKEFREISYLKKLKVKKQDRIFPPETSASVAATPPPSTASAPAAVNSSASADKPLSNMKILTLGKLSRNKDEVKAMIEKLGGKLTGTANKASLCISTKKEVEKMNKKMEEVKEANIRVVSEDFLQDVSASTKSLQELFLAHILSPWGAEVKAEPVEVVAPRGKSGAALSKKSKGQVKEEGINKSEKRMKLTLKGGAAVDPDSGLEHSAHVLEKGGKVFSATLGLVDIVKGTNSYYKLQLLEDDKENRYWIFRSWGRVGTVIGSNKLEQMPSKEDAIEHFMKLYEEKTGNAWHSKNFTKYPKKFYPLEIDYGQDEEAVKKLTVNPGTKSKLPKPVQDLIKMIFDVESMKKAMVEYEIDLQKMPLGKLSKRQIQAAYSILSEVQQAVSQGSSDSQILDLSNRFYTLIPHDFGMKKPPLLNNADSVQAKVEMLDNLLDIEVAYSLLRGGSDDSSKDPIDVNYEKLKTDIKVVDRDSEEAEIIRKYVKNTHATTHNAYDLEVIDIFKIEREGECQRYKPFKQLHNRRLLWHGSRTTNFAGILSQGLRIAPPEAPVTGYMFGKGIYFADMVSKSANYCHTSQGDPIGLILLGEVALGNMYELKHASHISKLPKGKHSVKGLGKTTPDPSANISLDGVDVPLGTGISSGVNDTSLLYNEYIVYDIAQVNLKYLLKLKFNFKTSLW

## CCc1cc2ncc(CN3CCC(Nc4ccc(C(=O)NC)nc4)C3)cc2[nH]c1=O (stereo unspecified) [US20250034168, Compound 7]
  IC50: 2.8 nM
